Measurements from patent US11517600B2, “Use of Crassocephalum rabens extract in the treatment of breast cancer” (ACADEMIA SINICA, priority 2018, dated 2022).

Assays:
[1] = system: TNBC metastatic tumor nodules in lung; assay: Distal metastasis to the lungs (H&E, Ki-67 IHC); assay type: in vivo, mice; conditions: for tumor metastasis nodules in the lung tissues: day 30, all dose groups (dLGG5, dLGG25, CR-API200, CR-API400, Dox5, Dox5+dLGG5) vs tumor control
Experimental: (§1) The therapeutic effects of dLGG or dLGG-enriched CR-API fractions from C. rabens against TNBC were evaluated using an orthotopic tumor model. Briefly, mice were subcutaneously injected with 4T1 (murine TNBC) cells (5×10^6 cells per 100 μl PBS and 50 μl matrigel per mouse) into the fourth mammary fat pad under isoflurane anaesthesia. Tumor growth and body weight are monitored daily. After tumors grow to an approximate size of 150 mm^3 at day 7 post implantation, test mice are randomized into different groups (8 mice per group) and subjected to a three-week compound treatment scheme (FIG. 2). […] Dosage and frequency of doxorubicin treatment is based on maximum tolerable dose determined from in house toxicity experiments within the concentration range commonly used in animal studies (Bao L, Haque A, Jackson K, et al. (2011) Increased Expression of P-Glycoprotein Is Associated with Doxorubicin Chemoresistance in the Metastatic 4T1 Breast Cancer Model. The American Journal of Pathology. 2011; 178 (2):838-852). Effects of drug/compound/extracts are evaluated thrice a week by monitoring tumor size and body weight. Euthanasia by cervical dislocation are performed at day 30 post tumor implantation. Tumors, organ tissues (lungs, liver, kidneys, spleen) and serum were immediately collected and allocated either for western blotting (immediately flash frozen using N2 and stored at −80° C.) or for paraffin fixation (immediately soaked in 10% formalin solution for at least one week). Paraffin-embedded tissues were stored at room temperature.
(§2) Tumor and organ tissues were fixed in 10% buffered formalin and embedded in paraffin. Paraffin-embedded samples were sectioned (6 μm) and underwent hemotoxylin and eosin (H&E) or immunohistochemical (IHC) staining. Paraffin-embedded tissue sections were heat immobilized and deparaffinized using xylene and rehydrated in a graded series of ethanol with a final wash in distilled water. For antigen retrieval, citrate retrieval buffer and Decloaking Chamber (Biocare Medical) were used. Images were captured using AxioVision software (Carl Zeiss MicroImaging, Inc.).

COX-2 [2] = assay: IHC of COX-2 in liver and lung tissues; assay type: in vivo, mice; conditions: day 30, dLGG 5 and 25, CR-API 200 and 400 mg/kg daily o.p., Dox 5 mg/kg every 3 days i.v., Dox5+dLGG5
Experimental: as §1, with “Tumors, organ tissues (lungs, liver, kidneys, spleen) and serum were immediately collected and allocated either for western blotting (immediately flash frozen using N2 and stored at −80° C.) or for paraffin fixation (immediately soaked in 10% formalin solution for at least one week). Paraffin-embedded tissues were stored at room temperature.” left out

[3] = Body weight of tumor-implanted mice; assay type: in vivo
Experimental: as §1, with “Tumors, organ tissues (lungs, liver, kidneys, spleen) and serum were immediately collected and allocated either for western blotting (immediately flash frozen using N2 and stored at −80° C.) or for paraffin fixation (immediately soaked in 10% formalin solution for at least one week). Paraffin-embedded tissues were stored at room temperature.” left out

Src (p-Src^419) = assay: Western blot of tumor tissues, Src activation; assay type: in vivo, mice; conditions: all dLGG and CR-API treatments, Dox5+dLGG5, Dox5
Experimental: as §1, with “Tumors, organ tissues (lungs, liver, kidneys, spleen) and serum were immediately collected and allocated either for western blotting (immediately flash frozen using N2 and stored at −80° C.) or for paraffin fixation (immediately soaked in 10% formalin solution for at least one week). Paraffin-embedded tissues were stored at room temperature.” left out

Rac1 = assay: Western blot of tumor tissues, Rac1; assay type: in vivo, mice; conditions: high dose dLGG (25 mg/kg), Dox5, Dox5+dLGG5
Experimental: as §1, with “Tumors, organ tissues (lungs, liver, kidneys, spleen) and serum were immediately collected and allocated either for western blotting (immediately flash frozen using N2 and stored at −80° C.) or for paraffin fixation (immediately soaked in 10% formalin solution for at least one week). Paraffin-embedded tissues were stored at room temperature.” left out

FAK = assay: Western blot of tumor tissues, FAK phosphorylation; assay type: in vivo, mice; conditions: high dose dLGG (25 mg/kg), high dose CR-API (400 mg/kg), Dox5, Dox5+dLGG5
Experimental: as §1, with “Tumors, organ tissues (lungs, liver, kidneys, spleen) and serum were immediately collected and allocated either for western blotting (immediately flash frozen using N2 and stored at −80° C.) or for paraffin fixation (immediately soaked in 10% formalin solution for at least one week). Paraffin-embedded tissues were stored at room temperature.” left out

[4] = system: 4T1 (murine TNBC) orthotopic tumor; assay: 4T1 orthotopic breast cancer model: tumor growth and survival; assay type: in vivo, mice; conditions: for tumor volume compared with the tumor control: Dox 5 mg/kg every 3 days i.v. (P<0.0001), Dox5+dLGG5 (P=0.0015), dLGG 25 mg/kg daily o.p. (P=0.0015); for reduced tumor volumes compared with the tumor control group: endpoint day 30
Experimental: Female BALB/cByJNar1 mice (4-week-old) were supplied from National Laboratory Animal Center, Taipei, Taiwan and given a standard laboratory diet and distilled water ad libitum and kept on a 12-h light/dark cycle at 22±2° C. This study was conducted according to the institutional guidelines and approved by the Institutional Animal Care and Utilization Committee (IACUC) of Academia Sinica, Taiwan.
as §1

[5] = system: TNBC metastatic tumor nodules in liver; assay: Distal metastasis to the liver (H&E, Ki-67 IHC); assay type: in vivo, mice; conditions: day 30; all dose groups (dLGG5, dLGG25, CR-API200, CR-API400, Dox5, Dox5+dLGG5) vs tumor control
Experimental: as §1, with “Tumors, organ tissues (lungs, liver, kidneys, spleen) and serum were immediately collected and allocated either for western blotting (immediately flash frozen using N2 and stored at −80° C.) or for paraffin fixation (immediately soaked in 10% formalin solution for at least one week). Paraffin-embedded tissues were stored at room temperature.” left out

cleaved caspase-3 = assay: IHC of cleaved caspase-3 in tumor tissues; assay type: in vivo, mice; conditions: for caspase-3 expression compared with the low dose treatments and the Dox5+dLGG5 combination: day 30, Dox 5 mg/kg i.v., CR-API 400 mg/kg, dLGG 25 mg/kg daily o.p.; for cleaved caspase-3 expression in tumor tissues compared with the vehicle control: day 30, all treatment groups
Experimental: as §1, §2

Cav-1 = assay: Western blot of tumor tissues, Cav-1; assay type: in vivo, mice; conditions: high dose dLGG (25 mg/kg), Dox5, Dox5+dLGG5
Experimental: as §1, with “Tumors, organ tissues (lungs, liver, kidneys, spleen) and serum were immediately collected and allocated either for western blotting (immediately flash frozen using N2 and stored at −80° C.) or for paraffin fixation (immediately soaked in 10% formalin solution for at least one week). Paraffin-embedded tissues were stored at room temperature.” left out

[6] = system: MCF10A (normal mammary epithelial cells); assay: MTT cell viability assay, MCF10A; assay type: cell-based, human; conditions: 24 h treatment
Experimental: (§3) Immortalized normal human mammary epithelial cells (MCF10A) and breast cancer cell lines including HER2+ (SKBR3), ER+ (MCF7), triple negative (MDA-MB-231), and murine TNBC cell line 4T1 were obtained from the ATCC (USA). Cells were expanded and frozen at low passage after the receipt of the original stocks. Cells were thawed and used within 15 passages.
(§4) Cells (3×10^3 cells/well) were seeded in 96-well plates overnight and treated for 24 hours. Cell growth was determined by MTT-based colorimetric assay. Viability of the cells treated with vehicle-only (0.5% DMSO) was defined as 100% viability. Cell survival after compound treatment was calculated using the following formula: viable cell number (%)=[OD570 (treated cells)/OD570 (vehicle control)]×100.

[7] = system: MDA-MB-231 (ER−, PR− and Her2− TNBC cells); assay: MTT cell viability assay, MDA-MB-231; assay type: cell-based; conditions: human derived TNBC cells, 24 hours
Experimental: as §3, §4

[8] = system: MCF7 (ER+ breast cancer cells); assay: MTT cell viability assay, MCF7; assay type: cell-based; conditions: Homo sapiens; MCF7, 24 hours, tested concentration range 5-100 μM
Experimental: as §3, §4

[9] = system: SKBR3 (Her2+ breast cancer cells); assay: MTT cell viability assay, SKBR3; assay type: cell-based; conditions: Homo sapiens, SK-BR-3; SKBR3, 24 hours, tested concentration range 5-100 μM
Experimental: as §3, §4

4T1 TNBC cells = assay: MTT cell viability assay, 4T1; assay type: cell-based; conditions: Mus musculus, murine derived TNBC cells 4T1, 24 hours
Experimental: as §3, §4

CYP2C19 = assay: Western blot of tumor tissues, CYP2C19; assay type: in vivo, mice; conditions: all dLGG and CR-API groups, Dox5+dLGG5 compared with Dox5 alone
Experimental: as §1, with “Tumors, organ tissues (lungs, liver, kidneys, spleen) and serum were immediately collected and allocated either for western blotting (immediately flash frozen using N2 and stored at −80° C.) or for paraffin fixation (immediately soaked in 10% formalin solution for at least one week). Paraffin-embedded tissues were stored at room temperature.” left out

Ki67 = assay: IHC of Ki67 in tumor tissues; assay type: in vivo, mice; conditions: day 30, dLGG and CR-API regardless of dose, Dox5, Dox5+dLGG5, vs tumor control
Experimental: as §1, with “Tumors, organ tissues (lungs, liver, kidneys, spleen) and serum were immediately collected and allocated either for western blotting (immediately flash frozen using N2 and stored at −80° C.) or for paraffin fixation (immediately soaked in 10% formalin solution for at least one week). Paraffin-embedded tissues were stored at room temperature.” left out

COX-2 [10] = assay: Western blot of tumor tissues, COX-2; assay type: in vivo, mice; conditions: all dLGG and CR-API groups, Dox5+dLGG5 compared with Dox5 alone
Experimental: as §1, with “Tumors, organ tissues (lungs, liver, kidneys, spleen) and serum were immediately collected and allocated either for western blotting (immediately flash frozen using N2 and stored at −80° C.) or for paraffin fixation (immediately soaked in 10% formalin solution for at least one week). Paraffin-embedded tissues were stored at room temperature.” left out

[11] = dLGG 25 mg/kg, CR-API 400 mg/kg daily o.p., Dox 5 mg/kg every 3 days i.v., Dox5+dLGG5

SMILES: COc1cccc2c1C(=O)c1c(O)c3c(c(O)c1C2=O)C[C@@](O)(C(=O)CO)C[C@@H]3O[C@H]1C[C@H](N)[C@H](O)[C@H](C)O1 [Dox, doxorubicin, reference compound]
- metastatic tumor nodules in lung (H&E) [1, 11]: not detectable
- tumor metastasis nodules in the lung tissues [1]: less compared with the tumor control group
- COX-2 expression in liver and lung tissues (COX-2 [2]): further induce COX-2 expression
- loss of weight ([3]; Dox5: 5 mg/kg every 3 days i.v., day 30): 10 % of starting body weights
- activation of Src (p-Src^419) in tumor tissues compared with the tumor control (Src (p-Src^419)): much less or no effect at all
- Rac1 expression level in tumor tissues (Rac1): decreased significantly
- phosphorylation of FAK in tumor tissues (FAK): significantly inhibited
- reduction in tumor weight ([4]; Dox5: 5 mg/kg every 3 days i.v., day 30, P<0.05): 60%
- tumor volume compared with the tumor control ([4]; day 30): significant tumor volume reduction
- tumor metastasis nodules in the liver tissues [5]: less compared with the tumor control group
- caspase-3 expression compared with the low dose treatments and the Dox5+dLGG5 combination (cleaved caspase-3): higher caspase-3 expression
- cleaved caspase-3 expression in tumor tissues compared with the vehicle control (cleaved caspase-3): increased expression of cleaved caspase-3
- Cav-1 expression level in tumor tissues (Cav-1): decreased significantly

SMILES: CC/C=C\C/C=C\C/C=C\CCCCCCCC(=O)OC[C@H](CO[C@@H]1O[C@H](CO)[C@H](O)[C@H](O)[C@H]1O)OC(=O)CCCCCCC/C=C\C/C=C\C/C=C\CC [dLGG, 1,2-di-O-α-linolenoyl-3-O-β-galactopyranosyl-sn-glycerol]
- cell survival [6]: no significant change in cell survival
- IC50 [7]: 55 µM
- IC50 [8]: > 100 µM
- IC50 [9]: > 100 µM
- metastatic tumor nodules in lung (H&E) [1, 11]: not detectable
- tumor metastasis nodules in the lung tissues [1]: less compared with the tumor control group
- metastatic tumor nodules in lung (H&E) ([1]; low dose: dLGG 5 mg/kg, CR-API 200 mg/kg daily o.p.): visible
- COX-2 expression in liver and lung tissues (COX-2 [2]): decreased in a dose-dependent manner
- weight loss ([3]; dLGG 5 and 25 mg/kg, CR-API 200 and 400 mg/kg daily o.p., given alone): No significant weight loss
- activation of Src (p-Src^419) in tumor tissues compared with the tumor control (Src (p-Src^419)): significantly inhibited
- IC50 (4T1 TNBC cells): 55 µM
- CYP2C19 expression level in tumor tissues (CYP2C19): dose dependent effect on attenuating the expression levels
- Rac1 expression level in tumor tissues (Rac1): decreased significantly
- Ki-67 overexpression in tumor tissues (Ki67): attenuated
- phosphorylation of FAK in tumor tissues (FAK): significantly inhibited
- survival ([4]; dLGG5: 5 mg/kg daily o.p., day 30): 100%
- reduced tumor volumes compared with the tumor control group ([4]; dLGG5: 5 mg/kg daily o.p., P<0.05): 18%
- survival ([4]; dLGG25: 25 mg/kg daily o.p., day 30): 100%
- reduced tumor volumes compared with the tumor control group ([4]; dLGG25: 25 mg/kg daily o.p., P<0.05): 47%
- tumor volume compared with the tumor control ([4]; day 30): significant tumor volume reduction
- tumor metastasis nodules in the liver tissues [5]: less compared with the tumor control group
- caspase-3 expression compared with the low dose treatments and the Dox5+dLGG5 combination (cleaved caspase-3): higher caspase-3 expression
- cleaved caspase-3 expression in tumor tissues compared with the vehicle control (cleaved caspase-3): increased expression of cleaved caspase-3
- COX-2 expression level in tumor tissues (COX-2 [10]): dose dependent effect on attenuating the expression levels
- Cav-1 expression level in tumor tissues (Cav-1): decreased significantly
